Assay results published in PubChem BioAssay AID1745844 (Carcinogenic Potency Database (CPDB), 2022).
Calls of active or inactive are those of the source. No rule for the calls is given here.

Tested on: rodent lifetime carcinogenesis bioassay, tumor incidence TD50
Experiment: chronic cancer bioassays in animals – CPDB, compiled studies (AID 1745844)

Structure (SMILES): Cc1cc(OC(=O)N(C)C)n(C(C)C)n1
- TD50 (mouse, strain B6AKF1, females, oral dosing, site: any site (literature study), lesion: several types, types named in the paper, dosed 76 weeks, study length 76 weeks): 0.023 mg/kg/day (inactive)
- carcinogen call (mouse, strain B6AKF1, females, oral dosing, site: liver, lesion: hepatoma, dosed 76 weeks, study length 76 weeks): negative (inactive)
- carcinogen call (mouse, strain B6AKF1, females, oral dosing, site: lung, lesion: several types, types named in the paper, dosed 76 weeks, study length 76 weeks): negative (inactive)
- TD50 (mouse, strain B6AKF1, males, oral dosing, site: any site (literature study), lesion: several types, types named in the paper, dosed 76 weeks, study length 76 weeks): 0.0124 mg/kg/day (inactive)
- TD50 (mouse, strain B6AKF1, males, oral dosing, site: liver, lesion: hepatoma, dosed 76 weeks, study length 76 weeks): 0.0419 mg/kg/day (inactive)
- TD50 (mouse, strain B6AKF1, males, oral dosing, site: lung, lesion: adenoma, dosed 76 weeks, study length 76 weeks): 0.0147 mg/kg/day (inactive)
- carcinogen call (mouse, strain B6C3F1, females, oral dosing, site: any site (literature study), lesion: several types, types named in the paper, dosed 76 weeks, study length 76 weeks): negative (inactive)
- carcinogen call (mouse, strain B6C3F1, females, oral dosing, site: liver, lesion: hepatoma, dosed 76 weeks, study length 76 weeks): negative (inactive)
- carcinogen call (mouse, strain B6C3F1, females, oral dosing, site: lung, lesion: adenoma, dosed 76 weeks, study length 76 weeks): negative (inactive)
- TD50 (mouse, strain B6C3F1, males, oral dosing, site: any site (literature study), lesion: several types, types named in the paper, dosed 76 weeks, study length 76 weeks): 0.0413 mg/kg/day (inactive)
- carcinogen call (mouse, strain B6C3F1, males, oral dosing, site: liver, lesion: hepatoma, dosed 76 weeks, study length 76 weeks): negative (inactive)
- TD50 (mouse, strain B6C3F1, males, oral dosing, site: lung, lesion: adenoma, dosed 76 weeks, study length 76 weeks): 0.0156 mg/kg/day (inactive)

Structure (SMILES): CN(CC(O)CO)N=O (configuration not stated)
- TD50 (hamster, strain Syrian Golden, females, by gavage, site: any site (literature study), lesion: several types, types named in the paper, dosed 41 weeks, study length 81 weeks): 0.509 mg/kg/day
- TD50 (hamster, strain Syrian Golden, females, by gavage, site: liver, lesion: all vascular tumors, dosed 41 weeks, study length 81 weeks): 12.7 mg/kg/day (inactive)
- TD50 (hamster, strain Syrian Golden, females, by gavage, site: nasal mucosa, lesion: carcinoma, dosed 41 weeks, study length 81 weeks): 1.51 mg/kg/day
- TD50 (hamster, strain Syrian Golden, females, by gavage, site: nasal mucosa, lesion: several types, types named in the paper, dosed 41 weeks, study length 81 weeks): 0.94 mg/kg/day
- TD50 (rat, strain Fischer 344, females, in drinking water, site: esophagus, lesion: several types, types named in the paper, dosed 40 weeks, study length 110 weeks): 1.48 mg/kg/day
- TD50 (rat, strain Fischer 344, females, in drinking water, site: liver, lesion: hepatocellular carcinoma, dosed 40 weeks, study length 110 weeks): 3.13 mg/kg/day
- TD50 (rat, strain Fischer 344, females, in drinking water, site: liver, lesion: neoplastic nodule, dosed 40 weeks, study length 110 weeks): 1.01 mg/kg/day
- TD50 (rat, strain Fischer 344, females, in drinking water, site: liver, lesion: several types, types named in the paper, dosed 40 weeks, study length 110 weeks): 0.67 mg/kg/day
- TD50 (rat, strain Fischer 344, females, in drinking water, site: lung, lesion: several types, types named in the paper, dosed 40 weeks, study length 110 weeks): 0.646 mg/kg/day
- TD50 (rat, strain Fischer 344, females, in drinking water, site: nasal cavity, lesion: several types, types named in the paper, dosed 40 weeks, study length 110 weeks): 1.48 mg/kg/day
